Reference: patent publication US4690822A, “Novel drug carrier and pharmaceutical preparation comprising the same” (Fujisawa Pharmaceutical Co., Ltd., priority 1985, dated 1987)

Tests used:
[1] = Solubility of FK 235 in water; type: physicochemical
[2] = fasting state; S.E. 0.7 min.; cited from earlier work

solubility [1] [µg/mL] | Compound | half-time of the passage of fluid through pylorus [2] [min]
< 2 | COC(=O)C1=C(C#N)NC(C)=C(C(=O)OC(C)C)C1c1cccc([N+](=O)[O-])c1 (centres unmarked) [FK 235, Isopropyl 6-cyano-5-methoxycarbonyl-2-methyl-4-(3-nitrophenyl)-1,4-dihydropyridine-3-carboxylate] | 
 | O [water] | 13.1
